Source: patent US11339419B2, “Scavenger protein(s) for improved preservation of analyte detection sensor(s) and method(s) of use thereof” (Siemens Healthcare Diagnostics Inc., priority 2017, dated 2022)
Several values for one entry are separate records, joined by “and”; a condition that tells them apart may be missing. Identical values can stand only once.

System: creatininase (Toyobo)
Test: Toyobo Creatininase Enzyme Absorbance with BSA and MIT
Type: biochemical
[1] = Day 0, 100 ppm MIT, 50 mg/mL BSA
[2] = Day 4, 50 ppm MIT, 25 mg/mL BSA
[3] = Day 4, 50 ppm MIT, 50 mg/mL BSA
[4] = Day 4, 100 ppm MIT, 5 mg/mL BSA
[5] = Day 4, 100 ppm MIT, 25 mg/mL BSA
[6] = Day 4, 100 ppm MIT, 50 mg/mL BSA
[7] = Day 14, 50 ppm MIT, 5 mg/mL BSA
[8] = Day 14, 50 ppm MIT, 25 mg/mL BSA
[9] = Day 14, 50 ppm MIT, 50 mg/mL BSA
[10] = Day 14, 100 ppm MIT, 5 mg/mL BSA
[11] = Day 14, 100 ppm MIT, 25 mg/mL BSA
[12] = Day 14, 100 ppm MIT, 50 mg/mL BSA

Description: Absorbance measurements of the creatininase enzyme(s) were taken via spectrophotometer for each aqueous solution (represented as columns 1-5 in Tables 5-8—column 6 is a blank), the absorbance being directly proportional to the enzyme activity being measured-which for Tables 5-8 is creatininase enzyme activity. Accordingly, the higher the absorbance measurement, the higher the enzyme activity of creatininase. Columns 7-11 represent five replicate readings in which the solution only contains BSA (i.e., there is no biocide(s) present in the solution). In addition, the mean values, standard deviations, and coefficients of variation are all presented for the enzyme activity/absorbance of each aqueous solution. All measurements were taken at 37° C.
As depicted in Table 6, creatininase (commercially offered for sale by Toyobo) enzyme activity is measured against various concentrations of MIT (biocide) and BSA (scavenger protein) over a period of 14 days (with absorbance measurement taken at 0, 4, and 14 days) for five different aqueous solutions (represented as columns 1-5—column 6 is a blank).

## bovine serum albumin [BSA]
[1]
  Creatininase Enzyme Absorbance: 0.867 and 0.794 and 0.799 and 0.792 and 0.771
  MEAN: 0.60
Day 4, 5 mg/mL BSA, no MIT (row of 50 ppm MIT)
  MEAN (columns 7-11): 0.81
Day 4, 5 mg/mL BSA, no MIT (row of 100 ppm MIT)
  MEAN (columns 7-11): 0.77
Day 4, 25 mg/mL BSA, no MIT (row of 50 ppm MIT)
  MEAN (columns 7-11): 0.64
Day 4, 25 mg/mL BSA, no MIT (row of 100 ppm MIT)
  MEAN (columns 7-11): 0.62
Day 4, 50 mg/mL BSA, no MIT (row of 50 ppm MIT)
  MEAN (columns 7-11): 0.52
Day 4, 50 mg/mL BSA, no MIT (row of 100 ppm MIT)
  MEAN (columns 7-11): 0.51
Day 4, 50 ppm MIT vs no MIT, 5 mg/mL BSA
  % Bias: −0.2%
Day 4, 50 ppm MIT vs no MIT, 25 mg/mL BSA
  % Bias: 1.5%
Day 4, 50 ppm MIT vs no MIT, 50 mg/mL BSA
  % Bias: 1.9%
Day 4, 50 ppm MIT, 5 mg/mL BSA
  Creatininase Enzyme Absorbance: 1.031 and 0.998 and 1.012 and 1.044 and 1.01
  MEAN: 0.81
[2]
  Creatininase Enzyme Absorbance: 0.867 and 0.847 and 0.853 and 0.878 and 0.873
  MEAN: 0.65
[3]
  Creatininase Enzyme Absorbance: 0.737 and 0.728 and 0.749 and 0.75 and 0.765
  MEAN: 0.53
Day 4, 100 ppm MIT vs no MIT, 5 mg/mL BSA
  % Bias: 2.2%
Day 4, 100 ppm MIT vs no MIT, 25 mg/mL BSA
  % Bias: 5.6%
Day 4, 100 ppm MIT vs no MIT, 50 mg/mL BSA
  % Bias: 7.0%
[4]
  Creatininase Enzyme Absorbance: 0.998 and 0.974 and 1.006 and 1.008 and 1.031
  MEAN: 0.79
[5]
  Creatininase Enzyme Absorbance: 0.871 and 0.863 and 0.869 and 0.86 and 0.866
  MEAN: 0.65
[6]
  Creatininase Enzyme Absorbance: 0.773 and 0.775 and 0.754 and 0.734 and 0.742
  MEAN: 0.54
Day 14, 5 mg/mL BSA, no MIT (row of 50 ppm MIT)
  MEAN (columns 7-11): 0.90
Day 14, 5 mg/mL BSA, no MIT (row of 100 ppm MIT)
  MEAN (columns 7-11): 0.87
Day 14, 25 mg/mL BSA, no MIT (row of 50 ppm MIT)
  MEAN (columns 7-11): 0.70
Day 14, 25 mg/mL BSA, no MIT (row of 100 ppm MIT)
  MEAN (columns 7-11): 0.72
Day 14, 50 mg/mL BSA, no MIT (row of 50 ppm MIT)
  MEAN (columns 7-11): 0.55
Day 14, 50 mg/mL BSA, no MIT (row of 100 ppm MIT)
  MEAN (columns 7-11): 0.56
Day 14, 50 ppm MIT vs no MIT, 5 mg/mL BSA
  % Bias: −1.7%
Day 14, 50 ppm MIT vs no MIT, 25 mg/mL BSA
  % Bias: 10.4%
Day 14, 50 ppm MIT vs no MIT, 50 mg/mL BSA
  % Bias: 3.9%
[7]
  Creatininase Enzyme Absorbance: 1.13 and 1.104 and 1.098 and 1.12 and 1.117
  MEAN: 0.88
[8]
  Creatininase Enzyme Absorbance: 1.021 and 0.986 and 0.982 and 1.025 and 0.996
  MEAN: 0.77
[9]
  Creatininase Enzyme Absorbance: 0.814 and 0.793 and 0.789 and 0.796 and 0.804
  MEAN: 0.57
Day 14, 100 ppm MIT vs no MIT, 5 mg/mL BSA
  % Bias: 4.1%
Day 14, 100 ppm MIT vs no MIT, 25 mg/mL BSA
  % Bias: 3.3%
Day 14, 100 ppm MIT vs no MIT, 50 mg/mL BSA
  % Bias: 6.0%
[10]
  Creatininase Enzyme Absorbance: 1.155 and 1.123 and 1.105 and 1.133 and 1.156
  MEAN: 0.91
[11]
  Creatininase Enzyme Absorbance: 0.997 and 0.966 and 0.95 and 0.992 and 0.976
  MEAN: 0.75
[12]
  Creatininase Enzyme Absorbance: 0.854 and 0.822 and 0.792 and 0.828 and 0.832
  MEAN: 0.60
Days 4 and 14, 5, 25 and 50 mg/mL BSA, with MIT
  absorbance of the creatininase enzyme compared to samples containing 0 mg/mL of BSA: increased absorbance
Days 4 and 14, only BSA, no MIT
  creatininase absorbance, solutions 7-11: increased (or at least maintained)
Days 4 and 14, with MIT
  BSA concentration at which the creatininase absorbance measurement is highest: 5 mg/mL
